Experiments:
Type in all cases: physicochemical
[1] = Wettability of EGMBE compared with alternative solvents/blends
[2] = Miscibility test with common oilfield solvents (Tables 3-5); set-up: key: S = separate; M = miscible; conditions: 50/50 volume per volume; for Solubility in Crude oil: shaken about a minute, let stand about 5 mins
Method: For each test solvent, it is blended with a common solvent at 50/50 volume per volume ratio. It is shaken vigorously for about a minute and let stand for about 5 mins. A complete miscibility is recorded if there is no formation of layers. Formation of turbid mixture or multiple layers is recorded as immiscible or separate.

[3] = Surface tension by the ring method (Du Nouy method); conditions: undiluted solvent, about 50 milliliters sample
Method: Surface Tension: Referring generally to Table 2, interfacial tension is measured for each test solvent or solvent blend for EGMBE-replacement. No further dilution is performed on the solvent prior to measurement. Interfacial tension was measured using about 50 milliliters sample by the ring method (Du Nouy method).

[4] = Blends miscible in water and in mud solvents (Table 6); conditions: 50/50 wt, room temperature
Method: Miscibility Test: Referring generally to Tables 4-6, the test solvent or solvent blend for EGMBE-replacement is mixed with common solvents used in oilfield industries to determine miscibility. […] It is shaken vigorously for about a minute and let stand for about 5 mins. A complete miscibility is recorded if there is no formation of layers. Formation of turbid mixture or multiple layers is recorded as immiscible or separate.

[5] = Miscibility of alkyldimethylamides as stated in the text

wettability, Mean (°) [1] [°]	Solubility in Alpha Olefin C1618 [2]	Solubility in Brines (Forties FW) [2]	Solubility in D-Limonene [2]	Solubility in Dodecane (to mimic Kerosen) [2]	Solubility in Exxsol D100 [2]	Solubility in Solvesso 150 ND [2]	Solubility in Water [2]	Solubility in isoparrafin [2]	Solubility in isopropanol [2]	Solubility in toluene [2]	Solubility in xylene [2]	Solubility in Crude oil [2]	ST (surface tension) [3] [mN/m]	SMILES	also measured
29.8	M	S	M	M	M	M	S	M	M	M	M	M	–	CCCCOCC(C)O (stereo not shown) [Dowanol, propylene glycol n-butyl ether]	–
45.0	–	–	–	–	–	–	–	–	–	–	–	–	26.3757	CCCCOCCO [EGMBE, ethyleneglycolmonobutyl ether]	Miscibility in Alpha Olefin C1618 [4]: miscible; Miscibility in D-Limonene [4]: miscible; Miscibility in Exxsol D100 [4]: miscible; Miscibility in Isopar L [4]: miscible; Miscibility in Water [4]: miscible; Miscibility in xylene [4]: miscible
48.9	S	M	M	S	S	M	M	S	M	M	M	S	33.871	COC(=O)C(C)CCC(=O)N(C)C (stereo not shown) [Polarclean]	–

Continued, molecule first:

SMILES	wettability, Mean (°) [1] [°]	Solubility in Alpha Olefin C1618 [2]	Solubility in Brines (Forties FW) [2]	Solubility in D-Limonene [2]	Solubility in Dodecane (to mimic Kerosen) [2]	Solubility in Exxsol D100 [2]	Solubility in Solvesso 150 ND [2]	Solubility in Water [2]	Solubility in isoparrafin [2]	Solubility in isopropanol [2]	Solubility in toluene [2]	Solubility in xylene [2]	Solubility in Crude oil [2]	ST (surface tension) [3] [mN/m]	also measured
CC1(C)OCC(CO)O1 (stereo not shown) [Augeo SL 191]	50.5	S	M	M	S	S	M	M	S	M	M	M	S	31.9988	–
CCCCOCCOCCO [Butyl Carbitol, diethylene glycol butyl ether]	50.8	–	–	–	–	–	–	–	–	–	–	–	–	–	–
CC(C)O [IPA, isopropyl alcohol]	–	M	M	M	M	M	M	M	M	M	M	M	M	–	–
CCCCCCCC(=O)N(C)C [N,N-dimethyloctanamide]	–	–	–	–	–	–	–	–	–	–	–	–	–	–	miscibility [5]: 0.43%
O [Water]	109.2	–	–	–	–	–	–	–	–	–	–	–	–	–	–

From patent US10633579B2, “Use of environmentally friendly solvents to replace glycol-based solvents” (RHODIA OPERATIONS, priority 2011, dated 2020)
